The source made the active and inactive calls. How the calls were made is not given here.
Tested on: Broad 7084-01 inhibitor HTS, set 2
Experiment: inhibitors in Broad screen 7084-01, set 2 (AID 977613);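 further: host cells are infected with parasite promastigotes that become internalized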

Structure (SMILES) | active concentration
COc1ccc2c3c(n(C)c2c1)[C@@H](CO)N(C(=O)C1CC1)CC31CN(Cc2ccccc2OC)C1 | > 10 µM (inactive)
COc1ccccc1-c1ccc2n(c1=O)C[C@H]1[C@H](CO)[C@@H](C(=O)N3CCOCC3)[C@@H]2N1CC1CC1 | > 10 µM (inactive)
O=C(C1CCOCC1)N1CC(=O)N2[C@@H](CO)[C@@H](c3ccc(-c4cccnc4)cc3)[C@@H]2C1 | > 10 µM (inactive)
COc1ccc2c3c([nH]c2c1)[C@H](CO)N(C(=O)C1CCCCC1)CC31CCN(C)CC1 | > 10 µM (inactive)
COc1cccc(-c2ccccc2[C@H]2[C@@H](C#N)N(C(=O)c3ccccn3)[C@@H]2CO)c1 | > 10 µM (inactive)
CC=Cc1ccc2n(c1=O)C[C@H]1[C@H](CO)[C@@H](C(=O)Nc3ccc(-c4ccccc4)cc3)[C@@H]2N1C(=O)CC (mixture of isomers) | > 10 µM (inactive)
O=C(C[C@@H]1CC[C@@H]2[C@H](COC[C@H](O)CN2C(=O)Nc2ccc(Cl)cc2)O1)NCC1CC1 | > 10 µM (inactive)
COc1ccccc1CN1[C@H](CO)[C@H]2c3ccccc3N(C(=O)C3CCCCC3)C[C@H]21 | > 10 µM (inactive)
O=C(C[C@@H]1CC[C@@H]2[C@H](COC[C@@H](O)CN2C(=O)c2ccccc2F)O1)NCc1ccccc1 | > 10 µM (inactive)
N#C[C@H]1[C@H](c2ccccc2-c2ccccc2F)[C@@H](CO)N1C(=O)Cc1ccccc1 | > 10 µM (inactive)
CC(C)NC(=O)N1CC2(C1)[C@H](c1ccccc1)[C@H](CO)N2Cc1cncnc1 | < 10 µM
C/C=C/c1ccc([C@@H]2[C@H](CO)N3C(=O)CN(Cc4ccc(F)cc4)C[C@@H]23)cc1 | > 10 µM (inactive)
COc1ccccc1CNC(=O)C[C@@H]1CC[C@H]2[C@@H](COC[C@@H](O)CN2C(=O)Nc2ccccc2)O1 | > 10 µM (inactive)
O=C(CC1CC1)N1[C@H](CO)[C@@H](c2ccccc2)C12CN(Cc1cccnc1)C2 | > 10 µM (inactive)
CN(C)C(=O)C[C@@H]1CC[C@H]2[C@@H](COC[C@H](O)CN2C(=O)C2CC2)O1 | > 10 µM (inactive)
C/C=C/c1ccccc1[C@@H]1[C@@H](CO)N(C(=O)CN2CCOCC2)[C@H]1C#N | > 10 µM (inactive)
COc1cccc(CN2CC3(CN(C)C3)c3c([nH]c4cc(OC)ccc34)[C@H]2CO)c1 | > 10 µM (inactive)
CN1[C@@H]2CN(C(=O)C3CCCCC3)c3ccccc3[C@@H]2[C@@H]1CO | > 10 µM (inactive)
COc1cccc(-c2ccc3c(c2)[C@H]2[C@H](CCN2S(=O)(=O)c2cn(C)cn2)[C@H](CO)N3)c1 | > 10 µM (inactive)
Cc1ccccc1-c1ccccc1[C@@H]1[C@H](C#N)N(C(=O)c2cccc(F)c2)[C@H]1CO | > 10 µM (inactive)
CC=Cc1ccc2n(c1=O)C[C@H]1[C@H](CO)[C@@H](C(=O)OC)N(CCc3ccccc3)[C@@H]21 (mixture of isomers) | > 10 µM (inactive)
CCCNC(=O)N1CC2(CN(C(=O)Cc3cccnc3)C2)c2c([nH]c3cc(OC)ccc23)[C@H]1CO | > 10 µM (inactive)
O=C(C[C@H]1CC[C@@H]2[C@H](COC[C@@H](O)CN2S(=O)(=O)c2ccccc2)O1)Nc1ccccc1 | > 10 µM (inactive)
OC[C@@H]1[C@H](c2ccc(Br)cc2)[C@H]2CN(Cc3ccccn3)CCCCN12 | > 10 µM (inactive)

Structure (SMILES) | active concentration
O=C(C[C@@H]1CC[C@H]2[C@@H](COC[C@H](O)CN2CC2CCOCC2)O1)NCC1CCCCC1 | > 10 µM (inactive)
CC(C)CC#Cc1ccc([C@@H]2[C@H](CO)N3C(=O)CN(C(=O)c4ccccn4)C[C@@H]23)cc1 | > 10 µM (inactive)
CN1C(=O)c2cc(NC(=O)C3CCOCC3)ccc2OC[C@@H]2O[C@@H](CC(=O)NCCc3ccncc3)CC[C@H]21 | > 10 µM (inactive)
CCN1CC(=O)N2[C@@H](CO)[C@@H](c3ccc(Br)cc3)[C@@H]2C1 | > 10 µM (inactive)
O=C(c1ccncc1)N1C[C@@H]2[C@H](c3ccccc31)[C@H](CO)N2Cc1ccccc1F | > 10 µM (inactive)
CCCNC(=O)N1[C@H](C#N)[C@H](c2ccccc2-c2ccc(C)cc2)[C@@H]1CO | > 10 µM (inactive)
CCc1csc(N2[C@H](C#N)[C@H](c3ccccc3-c3ccc(F)cc3)[C@H]2CO)n1 | > 10 µM (inactive)
CC(=O)N1[C@H](CO)[C@@H](c2ccccc2)C12CN(C(=O)Cc1ccccc1)C2 | > 10 µM (inactive)
COc1ccc2c3c([nH]c2c1)[C@H](CO)N(C(=O)Nc1ccc(F)cc1)CC31CCN(CC2CCOCC2)CC1 | > 10 µM (inactive)
COc1cc(CN2CC3(CCN(S(=O)(=O)c4cn(C)cn4)CC3)c3c(n(C)c4cc(OC)ccc34)[C@H]2CO)cc(OC)c1 | > 10 µM (inactive)
COc1ccccc1C(=O)Nc1ccc2c(c1)C(=O)N(C)[C@@H]1CC[C@H](CC(=O)NCCc3ccncc3)O[C@@H]1CO2 | > 10 µM (inactive)
CN1CCN(C(=O)C[C@@H]2CC[C@H]3[C@@H](COC[C@@H](O)CN3C(=O)C3CC3)O2)CC1 | > 10 µM (inactive)
N#C[C@H]1[C@@H](c2ccccc2C2=CCCC2)[C@H](CO)N1S(=O)(=O)c1ccccc1 | > 10 µM (inactive)
Cc1ccccc1S(=O)(=O)N1CC[C@@H]2[C@@H](CO)N(C)c3ccc(-c4cccc(C#N)c4)cc3[C@@H]21 | > 10 µM (inactive)
O=C(C[C@@H]1CC[C@H]2[C@@H](COC[C@@H](O)CN2CC2CC2)O1)NCc1ccc(Cl)cc1 | > 10 µM (inactive)
O=C(c1cnccn1)N1CC(=O)N2[C@H](CO)[C@@H](c3ccc(C#CC4CC4)cc3)[C@@H]2C1 | > 10 µM (inactive)
CN1c2ccc(-c3cccc(F)c3)cc2[C@@H]2[C@@H](CCN2C(=O)c2ccccc2F)[C@H]1CO | > 10 µM (inactive)
CS(=O)(=O)N1C[C@H](O)COC[C@@H]2O[C@H](CC(=O)NCc3ccc(-c4ccccc4)cc3)CC[C@H]21 | > 10 µM (inactive)
O=C(c1ccccc1)N1[C@H](CO)[C@H](c2ccccc2)C12CN(Cc1nccs1)C2 | > 10 µM (inactive)
O=C(C[C@@H]1CC[C@H]2[C@@H](COC[C@H](O)CN2Cc2cccc(C(F)(F)F)c2)O1)NCc1ccccc1 | > 10 µM (inactive)
CC1C=NC(S(=O)(=O)N2CC[C@@H]3[C@H](CO)N(C)c4ccc(-c5ccccc5F)cc4[C@@H]32)=N1 (stereo partly specified) | > 10 µM (inactive)
N#C[C@H]1[C@H](c2ccccc2-c2ccc(F)cc2)[C@@H](CO)N1C(=O)Cc1cccnc1 | > 10 µM (inactive)
COc1ccc2c3c([nH]c2c1)[C@H](CO)N(Cc1ccncc1)CC31CCN(CC2CCOCC2)CC1 | > 10 µM (inactive)
CN(C)C(=O)C[C@@H]1CC[C@H]2[C@@H](COC[C@@H](O)CN2CC2CCCC2)O1 | > 10 µM (inactive)

Structure (SMILES) | active concentration
O=C([C@@H]1[C@@H](CO)[C@@H]2Cn3c(ccc(C4=CCCC4)c3=O)[C@H]1N2C(=O)c1ccncc1)N1CCOCC1 | > 10 µM (inactive)
CCC(=O)N1CC(=O)N2[C@H](C1)[C@@H](c1ccc(-c3ccc(C#N)cc3)cc1)[C@@H]2CO | > 10 µM (inactive)
O=C(c1ccccn1)N1CC2(C1)[C@H](c1ccccc1)[C@@H](CO)N2Cc1ccccc1 | > 10 µM (inactive)
COc1ccc2c3c([nH]c2c1)[C@@H](CO)N(S(C)(=O)=O)CC31CN(CC2CCOCC2)C1 | > 10 µM (inactive)
O=C(Cc1ccccn1)N1[C@H](CO)[C@H]2c3ccccc3NC[C@H]21 | > 10 µM (inactive)
CN(C)C(=O)C[C@H]1CC[C@@H]2[C@H](COC[C@@H](O)CN2C(=O)C2CC2)O1 | > 10 µM (inactive)
CN(C)C(=O)C[C@H]1CC[C@H]2[C@@H](COC[C@H](O)CN2CC2CC2)O1 | > 10 µM (inactive)
COCC(=O)N1[C@H](CO)[C@H](c2ccccc2-c2ccc(C)cc2)[C@@H]1C#N | > 10 µM (inactive)
CCCNC(=O)N1[C@H](CO)[C@@H](c2ccccc2-c2ccccc2F)[C@@H]1C#N | > 10 µM (inactive)
O=C(Cc1ccccc1)N1C[C@@H]2[C@H](c3ccccc31)[C@@H](CO)N2C(=O)c1cccc(F)c1 | > 10 µM (inactive)
O=C(C1CCCCC1)N1CC2(C1)[C@H](c1ccccc1)[C@@H](CO)N2C(=O)c1cccnc1 | > 10 µM (inactive)
COC(=O)C[C@H]1CC[C@@H]2[C@H](COc3ccc(NC(=O)c4cccc(Cl)c4)cc3C(=O)N2C)O1 | > 10 µM (inactive)
COc1ccccc1-c1ccccc1[C@@H]1[C@H](C#N)N(C(=O)C2CCOCC2)[C@H]1CO | > 10 µM (inactive)
COc1ccc2c3c([nH]c2c1)[C@@H](CO)N(Cc1ccccc1F)CC31CN(CC2CC2)C1 | > 10 µM (inactive)
COc1cccc(S(=O)(=O)N2CCCCN3[C@H](CO)[C@H](c4ccc(C#CCC(C)C)cc4)[C@@H]3C2)c1 | > 10 µM (inactive)
C[C@H](O)C#Cc1ccc([C@H]2[C@@H](CO)N3CCCCN(C(=O)c4ccc5c(c4)OCO5)C[C@@H]23)cc1 | > 10 µM (inactive)
O=C(NC1CCCC1)N1CCCCN2[C@H](CO)[C@H](c3ccc(-c4cccnc4)cc3)[C@H]2C1 | > 10 µM (inactive)
Cn1cnc(S(=O)(=O)N2C[C@@H](O)COC[C@@H]3O[C@@H](CC(=O)NC4CCCC4)CC[C@H]32)c1 | > 10 µM (inactive)
O=C([C@@H]1[C@@H](CO)[C@@H]2Cn3c(cccc3=O)[C@H]1N2CC1CC1)N1CCc2ccccc2C1 | > 10 µM (inactive)
O=S(=O)(c1ccccc1)N1CCCCN2[C@H](CO)[C@@H](c3ccc(C#CC4CCCC4)cc3)[C@H]2C1 | > 10 µM (inactive)
CN1C[C@H]2[C@@H](c3ccccc31)[C@H](CO)N2Cc1ccccc1Cl | > 10 µM (inactive)
O=C1CN(S(=O)(=O)Cc2ccccc2)C[C@@H]2[C@H](c3ccc(C#Cc4ccccc4)cc3)[C@H](CO)N12 | > 10 µM (inactive)
O=C(C[C@@H]1CC[C@@H]2[C@H](COC[C@@H](O)CN2Cc2nccs2)O1)NCc1ccccc1 | > 10 µM (inactive)
